# Results taken from US20260008818A1, “CYCLIC PEPTIDE OR SALT THEREOF, AND USES THEREOF” (FUJIFILM Corporation, priority 2023, published 2026).
# Bridge positions count the residues as written; N and C are the ends. Ends that are not written are not given here. COCH2 = acetyl group that carries the bridge
# Test system: Recombinant Human FGFR1 alpha (IIIc) Fc Chimera Protein
# Assay: Binding affinity of enzymatically synthesized cyclic peptide to FGFR by ELISA
# Conditions: luminescence signal at reaction concentration 10 nmol/L, SEQ ID NO: 39 standardized to 1, enzyme synthesis product
# Procedure: The binding affinity of the cyclic peptide to FGFR was evaluated using an ELISA method.
# The binding affinity of the enzymatically synthesized cyclic peptide to FGFR was measured by evaluating the amount of the cyclic peptide bound to FGFR by ELISA.
# First, 5 ng of Recombinant Human FGFR1 alpha (IIIc) Fc Chimera Protein CF (R&D systems, 658-FR-050) was immobilized in each well of a 96-well plate, and blocked with Pierce Protein-Free (PBS) Blocking Buffer (Thermo, 37572), and a cyclic peptide diluted with Can Get Signal Immunoreaction Enhancer Solution I (TOYOBO, NKB-101) was then added and reacted at room temperature for 3 hours. After washing with 0.05% Tween 20-containing phosphate buffered saline (PBS), an anti-Myc antibody (Cell Signaling, 14038S) diluted with Can Get Signal Immunoreaction Enhancer Solution II (TOYOBO, NKB-101) was added and reacted at room temperature for 2 hours. After washing with 0.05% Tween 20-containing PBS, SuperSignal ELISA Femto Substrate (Thermo, 37075) was added, and the luminescence amount was measured. The dose-response relationship was calculated from using the difference between the luminescence amount in the well in which FGFR was immobilized and the luminescence amount in the well in which FGFR was not immobilized, and the concentration of the cyclic peptide at the time of reaction, and the binding affinity to FGFR was evaluated according to the following evaluation criteria. The evaluation result preferably satisfies the evaluation criteria A, B, or C.
# In a case where a value of a luminescence signal emitted by the cyclic peptide set forth in SEQ ID NO: 39 at a reaction concentration of 10 nmol/L is standardized to 1, evaluation criteria of the luminescence signal value emitted by the cyclic peptide at a reaction concentration of 10 nmol/L is as follows. • A: 0.7 or more • B: 0.5 or more and less than 0.7 • C: 0.1 or more and less than 0.5 • D: less than 0.1.
row,Substance,Evaluation result of binding affinity to FGFR
1,101 (HCSWERLQFHGHEAPFRVK(COCH2)V; thioether 2-19 (inferred)) [compound 101],A (0.7 or more)
2,50 (WCRLKLLGHDAPFIK(COCH2)W; thioether 2-15 (inferred)) [compound 50],B (0.5 or more and less than 0.7)
3,260 (ECVLQRLFFEGHLAPFILK(COCH2)I; thioether 2-19 (inferred)) [compound 260],B (0.5 or more and less than 0.7)
4,154 (HCSYERLTFHGHEAPFRVK(COCH2)V; thioether 2-19 (inferred)) [compound 154],A (0.7 or more)
5,284 (HCKYERLQFHGHEAPFRVK(COCH2)V; thioether 2-19 (inferred)) [compound 284],A (0.7 or more)
6,192 (HCSYERLQFHGHEAPFIVK(COCH2)V; thioether 2-19 via Ac) [compound 192],A (0.7 or more)
7,90 (HCNYERLQFHGHEAPFRVKV; not fully specified; Description of Artificial Sequence: Cyclic peptide) [compound 90],A (0.7 or more)
8,202 (HCSYERLQFHGHEAPFRLK(COCH2)V; thioether 2-19 via Ac; not fully specified) [compound 202],C (0.1 or more and less than 0.5)
9,241 (HK(COCH2)TWERLIFLGHIAPFWVCV; thioether 2-19 (inferred)) [compound 241],B (0.5 or more and less than 0.7)
10,321 (HCTWERLIFLGHVAPFWVK(COCH2)R; thioether 2-19 (inferred)) [compound 321],C (0.1 or more and less than 0.5)
11,281 (FCTIQQLILVNHRAPFWVK(COCH2)T; thioether 2-19 (inferred)) [compound 281],B (0.5 or more and less than 0.7)
12,297 (HCSMERLQFHGHEAPFRVK(COCH2)V; thioether 2-19 (inferred)) [compound 297],C (0.1 or more and less than 0.5)
13,272 (WCHIAPFLYHDGIQWGHLK(COCH2)V; thioether 2-19 (inferred)) [compound 272],B (0.5 or more and less than 0.7)
14,160 (HCSYERLQVHGHEAPFRVK(COCH2)V; thioether 2-19 (inferred)) [compound 160],C (0.1 or more and less than 0.5)
15,110 (HCSYERLQFHGFEAPFRVK(COCH2)V; thioether 2-19 (inferred)) [compound 110],B (0.5 or more and less than 0.7)
16,300 (HCSYERMQFHGHEAPFRVK(COCH2)V; thioether 2-19 (inferred)) [compound 300],A (0.7 or more)
17,346 (ACWLRHIYQGHQAPFLIWSTK(COCH2)S; thioether 2-21) [compound 346],C (0.1 or more and less than 0.5)
18,53 (SCWYQPEWLGHHLPYLVK(COCH2)W; thioether 2-18 (inferred)) [compound 53],C (0.1 or more and less than 0.5)
19,107 (HCSYERLQFHNHEAPFRVK(COCH2)V; thioether 2-19 (inferred)) [compound 107],C (0.1 or more and less than 0.5)
20,141 (HCSYEHLQFHGHEAPFRVK(COCH2)V; thioether 2-19 (inferred)) [compound 141],C (0.1 or more and less than 0.5)
21,174 (HCSYERLQFEGHEAPFRVK(COCH2)V; thioether 2-19 (inferred)) [compound 174],B (0.5 or more and less than 0.7)
22,193 (HCSYERLQFHGHEAPFVVK(COCH2)V; thioether 2-19 via Ac) [compound 193],A (0.7 or more)
23,73 (YCSYERLQFHGHEAPFRVK(COCH2)V; thioether 2-19 (inferred)) [compound 73],A (0.7 or more)
24,45 (YCFQKLEFFGHLAPFLFK(COCH2)S; thioether 2-18 (inferred)) [compound 45],B (0.5 or more and less than 0.7)
25,220 (HCSYERLQFHGHEAPFRVK(COCH2)D; thioether 2-19 (inferred)) [compound 220],C (0.1 or more and less than 0.5)

row,Substance,Evaluation result of binding affinity to FGFR
1,271 (QCWSQVSTPWGHTAPFIFK(COCH2)D; thioether 2-19 (inferred)) [compound 271],B (0.5 or more and less than 0.7)
2,318 (HCTWERLIFRGHIAPFWVK(COCH2)R; thioether 2-19 (inferred)) [compound 318],C (0.1 or more and less than 0.5)
3,223 (HCSYERLQFHGHEAPFRVK(COCH2)H; thioether 2-19 (inferred)) [compound 223],A (0.7 or more)
4,149 (HCSYERLFFHGHEAPFRVK(COCH2)V; thioether 2-19 (inferred)) [compound 149],A (0.7 or more)
5,268 (VCRLSFWGHAAPFLSVK(COCH2)T; thioether 2-17 (inferred)) [compound 268],C (0.1 or more and less than 0.5)
6,70 (ICSYERLQFHGHEAPFRVK(COCH2)V; thioether 2-19 (inferred)) [compound 70],A (0.7 or more)
7,289 (HCSYERLQFHKHEAPFRVK(COCH2)V; thioether 2-19 (inferred)) [compound 289],C (0.1 or more and less than 0.5)
8,166 (HCSYERLQFVGHEAPFRVK(COCH2)V; thioether 2-19 (inferred)) [compound 166],A (0.7 or more)
9,143 (HCSYERYQFHGHEAPFRVK(COCH2)V; thioether 2-19 (inferred)) [compound 143],B (0.5 or more and less than 0.7)
10,198 (HCSYERLQFHGHEAPFQVK(COCH2)V; thioether 2-19 via Ac) [compound 198],B (0.5 or more and less than 0.7)
11,175 (HCSYERLQFRGHEAPFRVK(COCH2)V; thioether 2-19 (inferred)) [compound 175],A (0.7 or more)
12,246 (PCTYRQVVVHGWYAPFISK(COCH2)V; thioether 2-19 (inferred)) [compound 246],C (0.1 or more and less than 0.5)
13,264 (ACQWGRWALQGHQVPFLTK(COCH2)I; thioether 2-19 (inferred)) [compound 264],A (0.7 or more)
14,349 (HCLEQLVYGGDTAPFWIVVFK(COCH2)D; thioether 2-21) [compound 349],C (0.1 or more and less than 0.5)
15,338 (PCLAPYGWVILDWGLVSNWK(COCH2)Y; thioether 2-20 (inferred)) [compound 338],C (0.1 or more and less than 0.5)
16,250 (QCLWAQLQLLTHLAPYIVK(COCH2)I; thioether 2-19 (inferred)) [compound 250],C (0.1 or more and less than 0.5)
17,63 (HCSYERLQFHGHEAAFRVK(COCH2)V; thioether 2-19 (inferred)) [compound 63],C (0.1 or more and less than 0.5)
18,163 (HCSYERLQFGGHEAPFRVK(COCH2)V; thioether 2-19 (inferred)) [compound 163],C (0.1 or more and less than 0.5)
19,295 (MCSYERLQFHGHEAPFRVK(COCH2)V; thioether 2-19 (inferred)) [compound 295],A (0.7 or more)
20,162 (HCSYERLQWHGHEAPFRVK(COCH2)V; thioether 2-19 (inferred)) [compound 162],B (0.5 or more and less than 0.7)
21,179 (HCSYERLQFHGHIAPFRVK(COCH2)V; thioether 2-19 (inferred)) [compound 179],A (0.7 or more)
22,153 (HCSYERLSFHGHEAPFRVK(COCH2)V; thioether 2-19 (inferred)) [compound 153],A (0.7 or more)
23,307 (HCSYERLQFHGHEAPFMVK(COCH2)V; thioether 2-19 (inferred)) [compound 307],A (0.7 or more)
24,292 (HCSYERLQFHGHEAPFKVK(COCH2)V; thioether 2-19 (inferred)) [compound 292],B (0.5 or more and less than 0.7)
25,280 (PCWTRVVLLHHYAPFWAK(COCH2)I; thioether 2-18 (inferred)) [compound 280],C (0.1 or more and less than 0.5)
